Measured values from the supplement of paper PMC10307832.

Experiments:
Assay in all cases: relative viability (nuclei count vs DMSO), 5 days (fraction); higher = more cells survive
Zebularine + Vorinostat = compound: O=c1ncccn1[C@@H]1O[C@H](CO)[C@@H](O)[C@H]1O [Zebularine] + O=C(CCCCCCC(=O)Nc1ccccc1)NO [Vorinostat] (partner 1 µM)
Procedure, shortened: (§1)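 Nuclei were stained with Hoechst during a one-step fixation (final 0.05% Triton X-100, 1% formaldehyde, 1 ug/ml Hoechst) carried out 5 days after dosing, then counted on 4× images. The cells, lung cancer lines in 1536-well plates, had been dosed by pin tool the day after seeding with one drug alone or a fixed anchor-drug dose plus five library-drug doses (not always all listed) in √10 steps. Relative viability is the nuclei count in treated wells divided by that in vehicle wells, and each value is the median of duplicate plates.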

Zebularine + OSI-027 = compound: O=c1ncccn1[C@@H]1O[C@H](CO)[C@@H](O)[C@H]1O [Zebularine] + COc1cccc2cc(-c3nc([C@H]4CC[C@H](C(=O)O)CC4)n4ncnc(N)c34)[nH]c12 [OSI-027] (partner 0.5 µM)
Procedure, shortened: as §1

Zebularine + Alpelisib = compound: O=c1ncccn1[C@@H]1O[C@H](CO)[C@@H](O)[C@H]1O [Zebularine] + Cc1nc(NC(=O)N2CCC[C@H]2C(N)=O)sc1-c1ccnc(C(C)(C)C(F)(F)F)c1 [Alpelisib] (partner 2 µM)
Procedure, shortened: as §1

Zebularine + Linsitinib = compound: O=c1ncccn1[C@@H]1O[C@H](CO)[C@@H](O)[C@H]1O [Zebularine] + C[C@]1(O)C[C@@H](c2nc(-c3ccc4ccc(-c5ccccc5)nc4c3)c3c(N)nccn32)C1 [Linsitinib] (partner 1 µM)
Procedure, shortened: as §1

NCI-H1395
relative viability (Zebularine + Vorinostat; first compound 1 µM): 0.7
relative viability (Zebularine + Vorinostat; first compound 3.162 µM): 0.753
relative viability (Zebularine + Vorinostat; first compound 10 µM): 0.661
relative viability (Zebularine + Vorinostat; first compound 31.62 µM): 0.655
relative viability (Zebularine + Vorinostat; first compound 100 µM): 0.515
relative viability (Zebularine + OSI-027; first compound 1 µM): 0.65
relative viability (Zebularine + OSI-027; first compound 3.162 µM): 0.58
relative viability (Zebularine + OSI-027; first compound 10 µM): 0.553
relative viability (Zebularine + OSI-027; first compound 31.62 µM): 0.531
relative viability (Zebularine + OSI-027; first compound 100 µM): 0.429
relative viability (Zebularine + Alpelisib; first compound 1 µM): 1.32
relative viability (Zebularine + Alpelisib; first compound 3.162 µM): 0.941
relative viability (Zebularine + Alpelisib; first compound 10 µM): 0.82
relative viability (Zebularine + Alpelisib; first compound 31.62 µM): 0.785
relative viability (Zebularine + Alpelisib; first compound 100 µM): 0.598
relative viability (Zebularine + Linsitinib; first compound 1 µM): 1.03
relative viability (Zebularine + Linsitinib; first compound 3.162 µM): 1.09
relative viability (Zebularine + Linsitinib; first compound 10 µM): 0.869
relative viability (Zebularine + Linsitinib; first compound 31.62 µM): 0.653
relative viability (Zebularine + Linsitinib; first compound 100 µM): 0.533

NCI-H2126
relative viability (Zebularine + Vorinostat; first compound 1 µM): 0.664
relative viability (Zebularine + Vorinostat; first compound 3.162 µM): 0.524
relative viability (Zebularine + Vorinostat; first compound 10 µM): 0.853
relative viability (Zebularine + Vorinostat; first compound 31.62 µM): 0.698
relative viability (Zebularine + Vorinostat; first compound 100 µM): 0.474
relative viability (Zebularine + OSI-027; first compound 1 µM): 0.721
relative viability (Zebularine + OSI-027; first compound 3.162 µM): 0.718
relative viability (Zebularine + OSI-027; first compound 10 µM): 0.619
relative viability (Zebularine + OSI-027; first compound 31.62 µM): 0.8
relative viability (Zebularine + OSI-027; first compound 100 µM): 0.602
relative viability (Zebularine + Alpelisib; first compound 1 µM): 0.783
relative viability (Zebularine + Alpelisib; first compound 3.162 µM): 0.694
relative viability (Zebularine + Alpelisib; first compound 10 µM): 0.764
relative viability (Zebularine + Alpelisib; first compound 31.62 µM): 0.687
relative viability (Zebularine + Alpelisib; first compound 100 µM): 0.437
relative viability (Zebularine + Linsitinib; first compound 1 µM): 0.743
relative viability (Zebularine + Linsitinib; first compound 3.162 µM): 0.644
relative viability (Zebularine + Linsitinib; first compound 10 µM): 0.668
relative viability (Zebularine + Linsitinib; first compound 31.62 µM): 0.624
relative viability (Zebularine + Linsitinib; first compound 100 µM): 0.478

LXF-289
relative viability (Zebularine + Vorinostat; first compound 1 µM): 0.853
relative viability (Zebularine + Vorinostat; first compound 3.162 µM): 0.809
relative viability (Zebularine + Vorinostat; first compound 10 µM): 0.635
relative viability (Zebularine + Vorinostat; first compound 31.62 µM): 0.667
relative viability (Zebularine + Vorinostat; first compound 100 µM): 0.254
relative viability (Zebularine + OSI-027; first compound 1 µM): 0.827
relative viability (Zebularine + OSI-027; first compound 3.162 µM): 0.69
relative viability (Zebularine + OSI-027; first compound 10 µM): 0.626
relative viability (Zebularine + OSI-027; first compound 31.62 µM): 0.564
relative viability (Zebularine + OSI-027; first compound 100 µM): 0.329
relative viability (Zebularine + Alpelisib; first compound 1 µM): 1.08
relative viability (Zebularine + Alpelisib; first compound 3.162 µM): 1.06
relative viability (Zebularine + Alpelisib; first compound 10 µM): 0.827
relative viability (Zebularine + Alpelisib; first compound 31.62 µM): 0.811
relative viability (Zebularine + Alpelisib; first compound 100 µM): 0.329
relative viability (Zebularine + Linsitinib; first compound 1 µM): 1.08
relative viability (Zebularine + Linsitinib; first compound 3.162 µM): 0.977
relative viability (Zebularine + Linsitinib; first compound 10 µM): 0.96
relative viability (Zebularine + Linsitinib; first compound 31.62 µM): 0.78
relative viability (Zebularine + Linsitinib; first compound 100 µM): 0.289

NCI-H2009
relative viability (Zebularine + Vorinostat; first compound 1 µM): 0.728
relative viability (Zebularine + Vorinostat; first compound 3.162 µM): 0.679
relative viability (Zebularine + Vorinostat; first compound 10 µM): 0.625
relative viability (Zebularine + Vorinostat; first compound 31.62 µM): 0.63
relative viability (Zebularine + Vorinostat; first compound 100 µM): 0.241
relative viability (Zebularine + OSI-027; first compound 1 µM): 0.687
relative viability (Zebularine + OSI-027; first compound 3.162 µM): 0.607
relative viability (Zebularine + OSI-027; first compound 10 µM): 0.508
relative viability (Zebularine + OSI-027; first compound 31.62 µM): 0.515
relative viability (Zebularine + OSI-027; first compound 100 µM): 0.366
relative viability (Zebularine + Alpelisib; first compound 1 µM): 1.18
relative viability (Zebularine + Alpelisib; first compound 3.162 µM): 1.13
relative viability (Zebularine + Alpelisib; first compound 10 µM): 0.97
relative viability (Zebularine + Alpelisib; first compound 31.62 µM): 0.947
relative viability (Zebularine + Alpelisib; first compound 100 µM): 0.392
relative viability (Zebularine + Linsitinib; first compound 1 µM): 1.17
relative viability (Zebularine + Linsitinib; first compound 3.162 µM): 1.15
relative viability (Zebularine + Linsitinib; first compound 10 µM): 1.03
relative viability (Zebularine + Linsitinib; first compound 31.62 µM): 0.984
relative viability (Zebularine + Linsitinib; first compound 100 µM): 0.386

NCI-H2405
relative viability (Zebularine + Vorinostat; first compound 1 µM): 1.2
relative viability (Zebularine + Vorinostat; first compound 3.162 µM): 0.981
relative viability (Zebularine + Vorinostat; first compound 10 µM): 0.894
relative viability (Zebularine + Vorinostat; first compound 31.62 µM): 1
relative viability (Zebularine + Vorinostat; first compound 100 µM): 0.826
relative viability (Zebularine + OSI-027; first compound 1 µM): 0.672
relative viability (Zebularine + OSI-027; first compound 3.162 µM): 0.597
relative viability (Zebularine + OSI-027; first compound 10 µM): 0.592
relative viability (Zebularine + OSI-027; first compound 31.62 µM): 0.676
relative viability (Zebularine + OSI-027; first compound 100 µM): 0.547
relative viability (Zebularine + Alpelisib; first compound 1 µM): 0.749
relative viability (Zebularine + Alpelisib; first compound 3.162 µM): 0.749
relative viability (Zebularine + Alpelisib; first compound 10 µM): 0.726
relative viability (Zebularine + Alpelisib; first compound 31.62 µM): 0.769
relative viability (Zebularine + Alpelisib; first compound 100 µM): 0.568
relative viability (Zebularine + Linsitinib; first compound 1 µM): 0.891
relative viability (Zebularine + Linsitinib; first compound 3.162 µM): 0.918
relative viability (Zebularine + Linsitinib; first compound 10 µM): 0.873
relative viability (Zebularine + Linsitinib; first compound 31.62 µM): 0.77
relative viability (Zebularine + Linsitinib; first compound 100 µM): 0.643

NCI-H1755
relative viability (Zebularine + Vorinostat; first compound 1 µM): 0.809
relative viability (Zebularine + Vorinostat; first compound 3.162 µM): 0.892
relative viability (Zebularine + Vorinostat; first compound 10 µM): 0.614
relative viability (Zebularine + Vorinostat; first compound 31.62 µM): 1.11
relative viability (Zebularine + Vorinostat; first compound 100 µM): 0.648
relative viability (Zebularine + OSI-027; first compound 1 µM): 0.801
relative viability (Zebularine + OSI-027; first compound 3.162 µM): 0.732
relative viability (Zebularine + OSI-027; first compound 10 µM): 0.631
relative viability (Zebularine + OSI-027; first compound 31.62 µM): 0.85
relative viability (Zebularine + OSI-027; first compound 100 µM): 0.566
relative viability (Zebularine + Alpelisib; first compound 1 µM): 1.07
relative viability (Zebularine + Alpelisib; first compound 3.162 µM): 1.03
relative viability (Zebularine + Alpelisib; first compound 10 µM): 0.538
relative viability (Zebularine + Alpelisib; first compound 31.62 µM): 0.92
relative viability (Zebularine + Alpelisib; first compound 100 µM): 0.61
relative viability (Zebularine + Linsitinib; first compound 1 µM): 0.722
relative viability (Zebularine + Linsitinib; first compound 3.162 µM): 1.01
relative viability (Zebularine + Linsitinib; first compound 10 µM): 0.844
relative viability (Zebularine + Linsitinib; first compound 31.62 µM): 1
relative viability (Zebularine + Linsitinib; first compound 100 µM): 0.506

HCC-78
relative viability (Zebularine + Vorinostat; first compound 1 µM): 0.535
relative viability (Zebularine + Vorinostat; first compound 3.162 µM): 0.462
relative viability (Zebularine + Vorinostat; first compound 31.62 µM): 0.444
relative viability (Zebularine + Vorinostat; first compound 100 µM): 0.337
relative viability (Zebularine + OSI-027; first compound 1 µM): 0.394
relative viability (Zebularine + OSI-027; first compound 3.162 µM): 0.381
relative viability (Zebularine + OSI-027; first compound 10 µM): 0.305
relative viability (Zebularine + OSI-027; first compound 31.62 µM): 0.366
relative viability (Zebularine + OSI-027; first compound 100 µM): 0.401
relative viability (Zebularine + Alpelisib; first compound 1 µM): 0.358
relative viability (Zebularine + Alpelisib; first compound 3.162 µM): 0.155
relative viability (Zebularine + Alpelisib; first compound 10 µM): 0.104
relative viability (Zebularine + Alpelisib; first compound 31.62 µM): 0.326
relative viability (Zebularine + Alpelisib; first compound 100 µM): 0.292
relative viability (Zebularine + Linsitinib; first compound 1 µM): 0.53
relative viability (Zebularine + Linsitinib; first compound 3.162 µM): 0.562
relative viability (Zebularine + Linsitinib; first compound 10 µM): 0.379
relative viability (Zebularine + Linsitinib; first compound 31.62 µM): 0.43
relative viability (Zebularine + Linsitinib; first compound 100 µM): 0.229

LOU-NH91
relative viability (Zebularine + Vorinostat; first compound 1 µM): 0.981
relative viability (Zebularine + Vorinostat; first compound 3.162 µM): 0.899
relative viability (Zebularine + Vorinostat; first compound 10 µM): 0.81
relative viability (Zebularine + Vorinostat; first compound 31.62 µM): 0.9
relative viability (Zebularine + Vorinostat; first compound 100 µM): 0.557
relative viability (Zebularine + OSI-027; first compound 1 µM): 0.746
relative viability (Zebularine + OSI-027; first compound 3.162 µM): 0.7
relative viability (Zebularine + OSI-027; first compound 10 µM): 0.66
relative viability (Zebularine + OSI-027; first compound 31.62 µM): 0.699
relative viability (Zebularine + OSI-027; first compound 100 µM): 0.571
relative viability (Zebularine + Alpelisib; first compound 1 µM): 0.703
relative viability (Zebularine + Alpelisib; first compound 3.162 µM): 0.719
relative viability (Zebularine + Alpelisib; first compound 10 µM): 0.686
relative viability (Zebularine + Alpelisib; first compound 31.62 µM): 0.693
relative viability (Zebularine + Alpelisib; first compound 100 µM): 0.56
relative viability (Zebularine + Linsitinib; first compound 1 µM): 0.893
relative viability (Zebularine + Linsitinib; first compound 3.162 µM): 0.963
relative viability (Zebularine + Linsitinib; first compound 10 µM): 0.868
relative viability (Zebularine + Linsitinib; first compound 31.62 µM): 0.876
relative viability (Zebularine + Linsitinib; first compound 100 µM): 0.629
